A short description of series [1]: Stability in PBS (radiochemical purity by radio-HPLC). The format is physicochemical. The following applies: 10 µL (18.5 MBq) in 1 mL PBS, 3 h, 37 °C; reverse-phase radio-HPLC; n = 3. The protocol:
The quality control assessed bacterial endotoxins, sterility, pH, and appearance, following the general methods of the Mexican Pharmacopeia. Radiochemical purity was evaluated by reversed-phase radio-high-performance liquid chromatography (radioHPLC) ( LC-40DxR, Shimadzu, Kyoto, Japan). A shim-pack GIST C18 column (Shimadzu: 4.6 mm × 25 cm, 5 μm particle size) with a linear gradient from 100% to 10% of mobile phase A (0.1% TFA aqueous solution) and from 0% to 90% of phase B (0.1% TFA in acetonitrile) in 20 min at 1 mL/min. The retention time of [^177Lu]Lu–iPSMA–iGRP78 was 17.4 ± 0.3 min, and 3.7 ± 0.2 min for ^177LuCl3. Radiochemical purities of [^177Lu]Lu–iPSMA (tR = 15.2 ± 0.2 min) and [^177Lu]Lu–iGRP78 (tR = 19.2 ± 0.4 min) were also verified to be higher than 95%.
To assess the in vitro stability of [^177Lu]Lu-iPSMA-iGRP78, 10 µL (18.5 MBq) of the radiopharmaceutical was diluted in either 1 mL of PBS or 1 mL of human serum (NIST-909c certified human serum sample; Sigma-Aldrich, St. Louis, MO, USA) (n = 3). The mixtures were incubated for 3 h at 37 °C. Then, 0.5 mL of acetonitrile was added to the human serum samples to precipitate the proteins, and the mixtures were centrifuged at 500× g for 10 min. The radiochemical purity of the human serum supernatants and PBS solution samples was analyzed by reverse-phase radio-HPLC, as described above.

Series [2] has as its system LNCaP cells. The series can be described thus: Cytotoxicity / cell viability by flow cytometry (Muse Count & Viability kit). The format is cell-based, human. Conditions: LNCaP 5 × 10^4 cells/200 µL, 1.4 MBq, 5 h (15 Gy/h whole-cell dose); triplicate (n = 3) from two independent experiments, mean ± SD. The protocol:
The effects of radioligands on LNCaP cell viability were evaluated using advanced flow cytometry techniques. The radioligands tested were [^177Lu]Lu–iPSMA–iGRP78, [^177Lu]Lu–iPSMA, and [^177Lu]Lu–iGRP78. This evaluation was conducted to assess their impact on the survival of prostate cancer cells. Cell viability was measured using the Count & Viability kit (Muse®). Prior to analysis, the Muse® cell analyzer (Merck Millipore, Burlington, MA, USA) was calibrated with the verification kit to ensure its accuracy. First, a fresh, untreated LNCaP cell sample was analyzed to establish reference parameters, including cell size, granularity, and natural cell viability. To accurately distinguish between live and dead cells, an aliquot of the same cell population was treated with 0.05% Triton X-100. This treatment defined the dead cell detection window in the analyzer. Next, a specific detection window was established for LNCaP cells to differentiate between viable and non-viable cells during analysis accurately. For each experimental group, a cell suspension containing 5 × 10^4 cells in 200 µL was prepared. The cells were then treated as follows: 1.4 MBq of (a) [^177Lu]Lu–iPSMA–iGRP78, (b) [^177Lu]Lu–iPSMA, (c) [^177Lu]Lu–iGRP78, and (d) untreated. After five hours of treatment (15 Gy/h at whole-cell dose), the cells were mixed with 450 µL of viability reagent and incubated for 5 min at room temperature in the dark. All measurements were performed in triplicate (n = 3) from two independent experiments to ensure reliability and reproducibility. To determine the radiation absorbed dose rate to the whole cell (15 Gy/h), the total number of nuclear transformations (N) was calculated. This value was normalized to the administered activity unit (MBq·s/MBq) by integrating the activity (A(t)) from time zero to five hours. Next, the absorbed dose was calculated by multiplying N by the dose factor (DF: from cell to cell) (Gy/Bq·s), as determined by MIRDcell software, considering the crossfire absorbed dose (version 2.1).

Series [3] has as its system LNCaP cells (PSMA+, CS-GRP78+). Description: Cytosolic and nuclear internalization (subcellular fractionation) in LNCaP cells. The format is cell-based, human. Conditions: LNCaP cells 1 × 10^5/200 µL, 37 kBq/4 nmol, 1 h, 37 °C; for Cytosolic internalization: gamma counting of cytosolic fraction; for Nuclear internalization: gamma counting of nuclear extract. The protocol:
(§1) PC-3 (CRL-1435; ATCC, Manassas, VA, USA) and LNCaP human prostate cancer cells (CRL-1740; ATCC, USA) were cultured in Roswell Park Memorial Institute medium (RPMI; Sigma-Aldrich, USA) at 37 °C, 85% humidity, 5% CO2, and 10% fetal bovine serum.
(§2) Assays were performed to evaluate the cellular uptake and subcellular distribution of [^177Lu]Lu–iPSMA–iGRP78 and the control monomers [^177Lu]Lu–iPSMA and [^177Lu]Lu–iGRP78 in two prostate cancer cell lines: LNCaP (PSMA+, SC-GRP78+) and PC3 (PSMA^−, CS-GRP78^−). Cells (1 × 10^5/200 µL) were incubated with the radiopharmaceutical (37 kBq/4 nmol) for 1 h at 37 °C to assess the distribution between the cytoplasm and nucleus.
Following incubation, tubes were measured with a NaI(Tl) crystal scintillation gamma-counter (NML Inc., TX, USA) to determine 100% of the initial activity. The tubes were centrifuged at 250× g for 5 min, and the supernatant was withdrawn. The activity in the pellet was measured to determine the percentage of cellular uptake (surface uptake) relative to the initial activity. Next, the nuclei and cytoplasm of the cells were separated using a Nuclear Extraction Kit (Chemicon International, Inc., Temecula, CA, USA). To prepare for fractionation, the cells were first washed with 1 mL of 0.2 M acetic acid/0.5 M NaCl. The tubes were centrifuged at 250× g for 5 min, washed with phosphate-buffered saline (PBS), and then centrifuged again to ensure thorough removal of extracellular components.
(§3) After centrifugation, the cell pellet, which corresponds to the internalized activity, was quantified using a gamma counter. The radioactivity measured in the pellet was defined as 100% of the internalized activity.
The pellet was resuspended in cytoplasmic lysis buffer with dithiothreitol and a protease inhibitor cocktail to maintain protein stability during lysis. Mechanical disruption was performed by passing the suspension through a 27-gauge needle multiple times using a syringe to ensure complete cell breakdown. The resulting lysate underwent centrifugation at 8000× g for 20 min at 4 °C. The supernatant, representing the cytosolic fraction, was collected and analyzed for radioactivity via gamma counting.
The remaining pellet, containing the nuclear fraction, was resuspended in nuclear extraction buffer supplemented with dithiothreitol and a protease inhibitor cocktail. Nuclear disruption was carried out before centrifuging at 16,000× g for 5 min at 4 °C. The supernatant contained the nuclear extract, while the membrane components remained in the pellet.
(§4) Radioactivity measurements were conducted on both the nuclear extract and the membrane pellet fractions using a gamma counter. The percentage of activity within each subcellular compartment was calculated for each time point, allowing for evaluation of the distribution of [^177Lu]Lu–iPSMA–iGRP78 and control monomers [^177Lu]Lu–iPSMA and [^177Lu]Lu–iGRP78 between the cytoplasmic and nuclear compartments of prostate cancer cells over time.

Series [4] deals with PC3 cells (PSMA−, CS-GRP78−). The series can be described thus: Cytosolic and nuclear internalization (subcellular fractionation) in PC3 cells. The format is cell-based, human. The following applies: PC3 cells 1 × 10^5/200 µL, 37 kBq/4 nmol, 1 h, 37 °C. The protocol: as §1, §2
Following incubation, tubes were measured with a NaI(Tl) crystal scintillation gamma-counter (NML Inc., TX, USA) to determine 100% of the initial activity. The tubes were centrifuged at 250× g for 5 min, and the supernatant was withdrawn. The activity in the pellet was measured to determine the percentage of cellular uptake (surface uptake) relative to the initial activity. […]
as §3
The pellet was resuspended in cytoplasmic lysis buffer with dithiothreitol and a protease inhibitor cocktail to maintain protein stability during lysis. […] The supernatant, representing the cytosolic fraction, was collected and analyzed for radioactivity via gamma counting. […]
as §4

The subject of series [5] is LNCaP cells (PSMA+, CS-GRP78+). Description: Saturation binding assay on LNCaP cells. The arrangement: species or system human. The following applies: 1-100 nM radioligand, 4 °C, 2 h, non-specific binding with 1 μM PMPA, n = 3 from two independent experiments; for pKd: GraphPad Prism, read-out: Dissociation constant (Kd). The protocol:
as §1
The affinity comparison between the [^177Lu]Lu–iPSMA–iGRP78 dimer and [^177Lu]Lu–iPSMA monomer was performed in LNCaP cells. For the saturation binding analysis, cells were seeded on 96-well plate cultures ([…]) and incubated at 37 °C under a CO2 atmosphere for 24 h, then the plates were placed on ice for 30 min. Next, they were incubated at 4 °C for 2 h with increasing concentrations (from 1nM to 100 nM) of the monomer [^177Lu]^natLu-iPSMA or the dimer [^177Lu]^natLu-iPSMA-iGRP78. Finally, cells were washed with PBS followed by the addition of 1M NaOH for cell lysis. This solution was measured for radioactivity using a NaI(Tl) gamma counter (NML Inc., Littleton, CO, USA). Non-specific binding of [^177Lu]Lu–iPSMA–iGRP78 and [^177Lu]Lu–iPSMA was determined under the same experimental conditions described above but in the presence of PMPA (2-(phosphonomethyl) pentanedioic acid) at a final concentration of 1 μM. The dissociation constant (Kd) and maximum number of binding sites (Bmax) were calculated by a lineal regression analysis with data (n = 3) from two independent experiments using the GraphPad Prism software (v. 10.6.1).

pKd: −log10 of the molar value. Starred links: 1 amine or outer side, 2 acyl side, 3 side chain; linkers in the order of their positions; H or OH if unused. Non-standard residues stand in square brackets, D forms with d. Residues, ends and D or L forms follow the SMILES beside them. *: point of attachment. X2 = O=C(O)CC[C@@H](NC(=O)N[C@H](CCCCNC(=O)[C@H](Cc1ccc2ccccc2c1)NC(=O)CCCN1C(=O)C[C@@H](*)C1=O)C(=O)O)C(=O)O; DOTA = O=C(O)CN1CCN(CC(=O)O)CCN(CC(=O)*)CCN(CC(=O)O)CC1; X1 = O=C(c1ccc(NN[*:1])nc1)[*:2]

Consider `CC[C@@H](C)[C@@H](NC(=O)[C@@H](Cc1c[nH]c2ccccc12)NC(=O)[C@H]1CCCN1C(=O)[C@@H](Cc1ccccc1)NC(=O)[C@H](NC(=O)[C@@H](Cc1c[nH]c2ccccc12)NC(=O)[C@@H](CS)NC(=O)c1ccc(NNC(=O)CN2CCN(CC(=O)O)CCN(CC(=O)O)CCN(CC(=O)O)CC2)nc1)[C@H](C)CC)C(=O)N[C@H](CCC(N)=O)C(=O)N[C@H](CC(C)C)C(=O)O` [[^177Lu]Lu–iGRP78, metal not drawn] ({DOTA}-[X1][dC][dW][dI][dF][dP][dW][dI][dQ][dL]-OH), for which, in series [1], the “Radiochemical purity, unchanged after incubation in PBS” value (from here on “Radiochemical purity, unchanged”) is “exceeding 97%”. Moreover, the Dead cells in series [2] worked out at 68.93 ± 5.05%. Also, in series [3], the Cytosolic internalization result is “highest internalization values” and the Nuclear internalization result is reported as “highest internalization values”. The “Uptake in cellular cytosol and nucleus” value in series [4] is on record as “low uptake”.

As for `O=C(O)CC[C@@H](NC(=O)N[C@H](CCCCNC(=O)[C@H](Cc1ccc2ccccc2c1)NC(=O)c1ccc(NNC(=O)CN2CCN(CC(=O)O)CCN(CC(=O)O)CCN(CC(=O)O)CC2)nc1)C(=O)O)C(=O)O` [[^177Lu]Lu–iPSMA, metal not drawn], the “Radiochemical purity, unchanged” value in series [1] is listed as “exceeding 97%”. In series [2], this compound returned a Dead cells of 38.63 ± 6.13%. For the same compound, in series [5], the “Maximum number of binding sites (Bmax)” value is reported as 0.032 nM and the pKd was 8.65. Moreover, in series [3], the Cytosolic internalization was determined as 6.45 ± 0.60% and the Nuclear internalization entry was “no uptake in the cell nucleus”. Also, the “Uptake in cellular cytosol and nucleus” value in series [4] is reported as “low uptake”.

`CC[C@@H](C)[C@@H](NC(=O)[C@@H](Cc1c[nH]c2ccccc12)NC(=O)[C@H]1CCCN1C(=O)[C@@H](Cc1ccccc1)NC(=O)[C@H](NC(=O)[C@@H](Cc1c[nH]c2ccccc12)NC(=O)[C@@H](CS[C@@H]1CC(=O)N(CCCC(=O)N[C@@H](Cc2ccc3ccccc3c2)C(=O)NCCCC[C@@H](NC(=O)N[C@H](CCC(=O)O)C(=O)O)C(=O)O)C1=O)NC(=O)c1ccc(NNC(=O)CN2CCN(CC(=O)O)CCN(CC(=O)O)CCN(CC(=O)O)CC2)nc1)[C@H](C)CC)C(=O)N[C@H](CCC(N)=O)C(=O)N[C@H](CC(C)C)C(=O)O` [[^177Lu]Lu–iPSMA–iGRP78, metal not drawn] ({DOTA}-[X1][dC](X2)[dW][dI][dF][dP][dW][dI][dQ][dL]-OH): the “Radiochemical purity, unchanged” value in series [1] is “exceeding 97%”. The compound also returned a Dead cells in series [2] of 69.93 ± 4.85%. For the same compound, in series [5], the “Maximum number of binding sites (Bmax)” value was determined as 0.048 nM and the pKd was 8.73. In series [3], this compound returned a Cytosolic internalization of 10.44 ± 2.43% and a Nuclear internalization of 4.81 ± 0.94%. In addition, in series [4], the “Uptake in cellular cytosol and nucleus” value was “low uptake”.

The values above are taken from PMC12733166, “Enhancing Cytosolic Internalization of [^177Lu]Lu–iPSMA in Prostate Cancer Cells: The Effect of Conjugating a GRP78 Inhibitor to the Radiotherapeutic Molecule” (International Journal of Molecular Sciences, 2025).
